Experimental data reported in US10526292B2 (Parion Sciences, Inc., priority 2012, dated 2020).

Experiments:
ExLac rats = experiment: Tear volume in rat model of dry eye disease (lacrimal gland excision, ExLac Model); assay type: in vivo, Sprague Dawley rats; conditions: 5 μl test article solution per eye, tear volume by ZoneQuick thread over 6 h
Protocol: The effects of compounds on tear volume was assessed in a rat model of dry eye disease in which Sprague Dawley rats undergo surgical lacrimal gland excision (ExLac Model) to reduce normal tear volume. The lacrimal excision reduces normal tear volume by ˜50% (Table 2).
Both the ipsilateral and contralateral eyes were dosed with 5 μl of test article solution. Tear production was measured using the ZoneQuick cotton thread with impregnated phenol red dye. The folded end of the thread was held in the lateral-ventral conjunctival cul-de-sac for 10 seconds. The length of tear wicking onto the thread was determined by measuring the length of the thread that changes color from yellow to red. Use of a stereomicroscope was assist in the accurate measurement (recorded in millimeters) of the wicking/color change. Tear volume was assessed pre-dose, and 15, 30, 60, 120, and 360 minute post-dose. For reference, the effect of a saline vehicle is shown for ExLac rats and normal (no lacrimal excision surgery) rats.

[1] = In vitro drug metabolism: summary in words for plasma and hepatocytes among the species evaluated; assay type: in vitro ADME; conditions: plasma (rat, rabbit, dog, human) and hepatocytes (rat, dog)
Protocol: (§1) The metabolic stability of 9 and 15 was assessed in plasma (rat, rabbit, dog and human) and hepatocytes (rat and dog). Compounds were added either directly to plasma or to hepatocyte suspensions at a final concentration of 2.5 or 10 μM, respectively, and incubated at 37° C. for up to six hours. Aliquots were removed at various time points and quenched. The amount of parent compound was quantified via UPLC-fluorescence analysis. The amount of parent compound remaining was calculated based on the total peak area at the time of sampling divided by the total peak area at initiation.

[2] = In vitro drug metabolism: plasma stability, dog; assay type: in vitro ADME; conditions: 2.5 μM, 37° C., up to six hours
Protocol: as §1

[3] = In vitro drug metabolism: hepatocyte stability, rat; assay type: in vitro ADME; conditions: rat hepatocyte suspension, 10 μM, 37° C., up to six hours
Protocol: as §1

[4] = In vitro drug metabolism: plasma stability, rabbit; assay type: in vitro ADME; conditions: 2.5 μM, 37° C., up to six hours
Protocol: as §1

[5] = In vitro drug metabolism: plasma stability, rat; assay type: in vitro ADME; conditions: 2.5 μM, 37° C., up to six hours
Protocol: as §1

[6] = In vitro drug metabolism: hepatocyte stability, dog; assay type: in vitro ADME; conditions: dog hepatocyte suspension, 10 μM, 37° C., up to six hours
Protocol: as §1

[7] = In vitro drug metabolism: plasma stability, human; assay type: in vitro ADME; conditions: 2.5 μM, 37° C., up to six hours
Protocol: as §1

[8] = Confocal microscopy assay of amiloride congener transport; assay type: in vitro ADME; conditions: applied to apical (epithelial) surface of mouse corneas, one hour at 37 C
Description: Serial x-y images were obtained one hour post-drug addition by confocal microsopy.

rabbits = conditions: topical addition; cited from earlier work
rats = conditions: topical addition; cited from earlier work

SMILES	6 h Ocular Hydration (AUC0-6) (ExLac rats)	other results
N=C(NCCCC[C@H](N)C(=O)NCCCN(CCCNC(=O)[C@@H](N)CCCCNC(=N)NC(=O)c1ccccc1)CCOc1ccc(CCCCNC(=N)NC(=O)c2nc(Cl)c(N)nc2N)cc1)NC(=O)c1ccccc1 [Compound 75, N,N′-((7S,19S)-7,19-diamino-13-(2-(4-(4-(3-(3,5-diamino-6-chloropyrazine-2-carbonyl)guanidino)butyl)phenoxy)ethyl)-1,25-diimino-8,18-dioxo-2,9,13,17,24-pentaazapentacosane-1,25-diyl)dibenzamide]	38.2	
N=C(N)NCCCC[C@H](N)C(=O)NCCCC[C@H](N)C(=O)NCCCC[C@H](N)C(=O)NCCCN(CCCNC(=O)[C@@H](N)CCCCNC(=O)[C@@H](N)CCCCNC(=O)[C@@H](N)CCCCNC(=N)N)CCOc1ccc(CCCCNC(=N)NC(=O)c2nc(Cl)c(N)nc2N)cc1 [Compound 102, (S,S,2S,2′S)—N,N′-(3,3′-(2-(4-(4-(3-(3,5-diamino-6-chloropyrazine-2-carbonyl)guanidino)butyl)phenoxy)ethylazanediyl)bis(propane-3,1-diyl))bis(2-amino-6-((S)-2-amino-6-((S)-2-amino-6-guanidinohexanamido)hexanamido)hexanamide)]	43.2	
N=C(NCCCCc1ccc(OCCN(CCCNC(=O)[C@@H](N)CCCCNC(=O)[C@@H](N)CCCCN)CCCNC(=O)[C@@H](N)CCCCNC(=O)[C@@H](N)CCCCN)cc1)NC(=O)c1nc(Cl)c(N)nc1N [Compound 59, (S,2S,2′S)—N,N′-(3,3′-(2-(4-(4-(3-(3,5-diamino-6-chloropyrazine-2-carbonyl)guanidino)butyl)phenoxy)ethylazanediyl)bis(propane-3,1-diyl))bis(2-amino-6-((S)-2,6-diaminohexanamido)hexanamide)]	39.7	
N=C(N)NCCCC[C@@H](N)C(=O)NCCCN(CCCNC(=O)[C@H](N)CCCCNC(=N)N)CCOc1ccc(CCCCNC(=N)NC(=O)c2nc(Cl)c(N)nc2N)c2c1CCCC2 [Compound 133, (2R,2′R)—N,N′-(3,3′-(2-(4-(4-(3-(3,5-diamino-6-chloropyrazine-2-carbonyl)guanidino)butyl)-5,6,7,8-tetrahydronaphthalen-1-yloxy)ethylazanediyl)bis(propane-3,1-diyl))bis(2-amino-6-guanidinohexanamide)]	45.7	
N=C(N)NCCCC[C@H](N)C(=O)NCCCN(CCCNC(=O)[C@@H](N)CCCCNC(=N)N)CCOc1ccc(CCCCNC(=N)NC(=O)c2nc(Cl)c(N)nc2N)cc1 [Compound 15, (2S,2′S)—N,N′-(3,3′-(2-(4-(4-(3-(3,5-diamino-6-chloropyrazine-2-carbonyl)guanidino)butyl)phenoxy)ethylazanediyl)bis(propane-3,1-diyl))bis(2-amino-6-guanidinohexanamide)]	50.2	Stability towards metabolic hydrolysis in plasma and hepatocytes [1]: rapidly metabolized; Plasma Stability (amount of parent compound remaining) [2]: 18%; Hepatocyte Stability (amount of parent compound remaining) [3]: 14%; Plasma Stability (amount of parent compound remaining) [4]: 8.7%; Plasma Stability (amount of parent compound remaining) [5]: 10%; Hepatocyte Stability (amount of parent compound remaining) [6]: 19%; Plasma Stability (amount of parent compound remaining) [7]: 7.6%
N=C(N)NCCCC[C@H](N)C(=O)NCCCN(CCCNC(=O)[C@@H](N)CCCCNC(=N)N)CCCc1ccc(NC(=O)[C@@H](N)Cc2ccc(CCCCNC(=N)NC(=O)c3nc(Cl)c(N)nc3N)cc2)cc1 [Compound 145, (2S,2′S)—N,N′-(3,3′-(3-(4-((S)-2-amino-3-(4-(4-(3-(3,5-diamino-6-chloropyrazine-2-carbonyl)guanidino)butyl)phenyl)propanamido)phenyl)propylazanediyl)bis(propane-3,1-diyl))bis(2-amino-6-guanidinohexanamide)]	44.7	
COC(=O)NC(=N)NCCCC[C@@H](N)C(=O)NCCCN(CCCNC(=O)[C@H](N)CCCCNC(=N)N)CCOc1ccc(CCCCNC(=N)NC(=O)c2nc(Cl)c(N)nc2N)cc1 [Compound 46, 3,5-diamino-N—(N-(4-(4-((R)-11-amino-17-(3-((R)-2-amino-6-guanidinohexanamido)propyl)-5-imino-3,12-dioxo-2-oxa-4,6,13,17-tetraazanonadecan-19-yloxy)phenyl)butyl)carbamimidoyl)-6-chloropyrazine-2-carboxamide]	39.9	
N=C(N)NCCCC[C@@H](N)C(=O)NCCCN(CCCNC(=O)[C@H](N)CCCCNC(=N)N)CCOc1ccc2cc(CCCCNC(=N)NC(=O)c3nc(Cl)c(N)nc3N)ccc2c1 [Compound 116, (2R,2′R)—N,N′-(3,3′-(2-(6-(4-(3-(3,5-diamino-6-chloropyrazine-2-carbonyl)guanidino)butyl)naphthalen-2-yloxy)ethylazanediyl)bis(propane-3,1-diyl))bis(2-amino-6-guanidinohexanamide)]	40.9	
N=C(N)NCCCC[C@H](N)C(=O)NCCCN(CCCNC(=O)[C@@H](N)CCCCNC(=N)N)CCCN(CCCN(CCCNC(=O)[C@@H](N)CCCCNC(=N)N)CCCNC(=O)[C@@H](N)CCCCNC(=N)N)CCOc1ccc(CCCCNC(=N)NC(=O)c2nc(Cl)c(N)nc2N)cc1 [Compound 82, (2S,2′S,2″S,2′″S)—N,N′,N″,N′″-(3,3′,3″,3′″-(3,3′-(2-(4-(4-(3-(3,5-diamino-6-chloropyrazine-2-carbonyl)guanidino)butyl)phenoxy)ethylazanediyl)bis(propane-3,1-diyl))bis(azanetriyl)tetrakis(propane-3,1-diyl))tetrakis(2-amino-6-guanidinohexanamide)]	49.8	
N=C(N)NC(=O)c1nc(Cl)c(N)nc1N [Amiloride, amiloride]	30.4	Penetration of the cornea (confocal x-z image, FIG. 16) [8]: can fully penetrate the cornea; Change of tear volume (rabbits): approximate doubling of tear volume; Time tear volume remained elevated post-administration (rabbits): > 60 min; Change of tear volume (rats): approximate doubling of tear volume; Time tear volume remained elevated post-administration (rats): > 60 min
N=C(N)NCCCC[C@@H](N)C(=O)NCCCN(CCCNC(=O)[C@@H](N)CCCCNC(=N)N)CCOc1ccc(CCCCNC(=N)NC(=O)c2nc(Cl)c(N)nc2N)cc1 [Compound 90, 3,5-diamino-N—(N-(4-(4-(2-((3-((R)-2-amino-6-guanidinohexanamido)propyl)(3-((S)-2-amino-6-guanidinohexanamido)propyl)amino)ethoxy)phenyl)butyl)carbamimidoyl)-6-chloropyrazine-2-carboxamide]	49.0	
N=C(N)NCCCC[C@H](N)C(=O)NCCCN(CCCN)CCOc1ccc(CCCCNC(=N)NC(=O)c2nc(Cl)c(N)nc2N)cc1 [Compound 51, (S)-3,5-diamino-N—(N-(4-(4-(2-((3-(2-amino-6-guanidinohexanamido)propyl)(3-aminopropyl)amino)ethoxy)phenyl)butyl)carbamimidoyl)-6-chloropyrazine-2-carboxamide]	38.0	
N=C(N)NCCCC[C@H](NC[C@H](O)[C@@H](O)[C@H](O)[C@H](O)CO)C(=O)NCCCN(CCCNC(=O)[C@H](CCCCNC(=N)N)NC[C@H](O)[C@@H](O)[C@H](O)[C@H](O)CO)CCOc1ccc(CCCCNC(=N)NC(=O)c2nc(Cl)c(N)nc2N)cc1 [Compound 42, (S,R,R,R,2S,2′S)—N,N′-(3,3′-(2-(4-(4-(3-(3,5-diamino-6-chloropyrazine-2-carbonyl)guanidino)butyl)phenoxy)ethylazanediyl)bis(propane-3,1-diyl))bis(6-guanidino-2-((2S,3R,4R,5R)-2,3,4,5,6-pentahydroxyhexylamino)hexanamide)]	52.3	
N=C(NCCCCc1ccc(OCCN(CCCN)CCCN)cc1)NC(=O)c1nc(Cl)c(N)nc1N [Compound 45, 3,5-diamino-N—(N-(4-(4-(2-(bis(3-aminopropyl)amino)ethoxy)phenyl)butyl)carbamimidoyl)-6-chloropyrazine-2-carboxamide]	42.3	Hepatocyte Stability (amount of parent compound remaining) [3]: 83%; Hepatocyte Stability (amount of parent compound remaining) [6]: 75%
